Data: patent publication US9241952B2, “Method of treating type II diabetes, hyperglycemia or hypoglycemia by administering a synergistic combination of a sulphonylurea and inulin” (OZSTAR THERAPEUTICS PTY LTD, priority 2010, dated 2016)

Assays:
Assay type in all cases: in vivo, human
[1] = Fasting blood glucose (FBG), Accu-Chek, T2DM patient on Glibenclamide with inulin (Examples 1 and 3)
Method: (§1) Other similar devices can also be used.
The efficacy of inulin on Glibenclamide therapy was investigated. Several years prior to inulin combination therapy, patient's FBG fluctuated drastically and was uncontrolled around 10 mmol/L. Their cholesterol and triglyceride were also very high (Table 2). FIG. 1 depicts the monthly FBG average at indicated time points. Conditions of treatments are described below: • January 2007: Patient's endocrinologist increased the Glibenclamide dose from 2×5 mg to 3×5 mg per day. […] For the first time they were diagnosed with Atrial fibrillation and prescribed with Warfarin. […] Low FBG assisted in excellent recovery. • March 2009: Inulin supply became unavailable.
The patient, as described above in Example 1, was switched over to inulin (Orafti), and combination therapy with Glibenclaminde (5 mg, three times daily) continued following a similar protocol as described above except that the patient received 15 gr/day of inulin (Orafti).

[2] = FBG, HA1c and lipid profiles by independent pathology laboratory, Example 1 patient (Table 2); conditions: Nov. 5, 2006; prior to inulin
Source text: as §1

[3] = FBG, T2DM patient on Gliclazide with inulin (Example 2)
Method: as §1
Another patient, who was under Gliclazide therapy (30 mg, once daily) for nearly a decade with uncontrolled blood glucose levels above 9 mmol/L, also began the combination therapy with inulin (JLS). Various blood parameter measurements were as described in Example 1.

Row | Compound | average FBG ([1]; February 2007, Glibenclamide 3×5 mg per day) [mmol/L] | average FBG ([1]; January 2007, Glibenclamide 2×5 mg per day) [mmol/L] | FBG ([1]; by October 2009, inulin unavailable from March 2009) [mmol/L] | FBG ([1]; several years prior to inulin combination therapy, uncontrolled) | Cholesterol [2] [mmol/L] | Fasting Glucose [2] [mmol/L] | Triglyceride [2] [mmol/L] | blood glucose levels ([3]; Gliclazide 30 mg once daily for nearly a decade, uncontrolled) | FBG level ([3]; Gliclazide 30 mg once daily, before inulin, ± SEM) [mmol/L]
1 | COc1ccc(Cl)cc1C(=O)NCCc1ccc(S(=O)(=O)NC(=O)NC2CCCCC2)cc1 [Glibenclamide] | 6 | 7.8 | ~7.5 | around 10 mmol/L | 6.2 | 10 | 4 |  | 
2 | Cc1ccc(S(=O)(=O)NC(=O)NN2CC3CCCC3C2)cc1 (stereo not drawn) [Gliclazide] |  |  |  |  |  |  |  | above 9 mmol/L | 9.4 ± 1.82
